For this assay, the target named is T1, GST-PLK1 (Homo sapiens, UniProt P53350).
T1 construct: Full-length, active GST-PLK1 is purified from Sf9 insect cells; made in house; host or cells: Sf9 insect cells
Nature of the assay: Biochemical Characterization Assay: GST-PLK1 kinase HTRF assay with GST-p53 substrate. To be noted: full-length GST-PLK1, GST-p53 and ATP, 37° C. for 35 minutes, HTRF signal. The procedure, abridged: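 Full-length GST-PLK1 from Sf9 cells (3 ug/mL stock) with full-length E. coli GST-p53 substrate in HEPES pH 7 buffer with MgCl2, TCEP, orthovanadate, BSA and Triton X-100; compound stocks 0.6 nM-4 mM in DMSO. Reaction 35 min at 37 °C, EDTA-stopped; phospho-p53 detected by HTRF (Eu anti-rabbit/APC anti-GST).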
A general note: TR-FRET usually uses a lanthanide donor and a delayed reading to cut background.

24 compounds from US7517873B2, “Substituted pyrimidodiazepines” (Hoffman-La Roche Inc., priority 2007, dated 2009) can be followed below.

T1 sequence (P53350 whole entry): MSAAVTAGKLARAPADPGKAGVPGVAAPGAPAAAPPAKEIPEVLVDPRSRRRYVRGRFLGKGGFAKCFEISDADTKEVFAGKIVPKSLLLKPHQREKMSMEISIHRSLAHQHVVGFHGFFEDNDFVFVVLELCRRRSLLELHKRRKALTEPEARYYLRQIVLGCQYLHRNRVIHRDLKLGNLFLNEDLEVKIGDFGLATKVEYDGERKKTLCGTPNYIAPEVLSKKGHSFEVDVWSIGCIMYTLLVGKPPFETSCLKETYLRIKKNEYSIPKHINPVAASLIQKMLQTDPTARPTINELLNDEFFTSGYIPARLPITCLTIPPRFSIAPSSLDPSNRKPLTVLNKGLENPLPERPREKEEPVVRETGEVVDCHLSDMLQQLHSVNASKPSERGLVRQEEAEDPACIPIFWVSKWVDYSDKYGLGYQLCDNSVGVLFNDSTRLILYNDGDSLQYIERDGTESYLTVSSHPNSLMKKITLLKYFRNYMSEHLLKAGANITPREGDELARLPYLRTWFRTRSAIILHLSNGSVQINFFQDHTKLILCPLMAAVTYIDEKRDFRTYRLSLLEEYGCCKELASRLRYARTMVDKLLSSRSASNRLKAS

For orientation: IC50 means the point on the concentration scale where inhibition reaches its midpoint. Turning to `COc1cc(C(=O)NC2CCN(C)CC2)ccc1Nc1ncc2c(n1)N(C1CCC1)CCC(=O)N2C` [I-24, 4-(9-Cyclobutyl-5-methyl-6-oxo-6,7,8,9-tetrahydro-5H-pyrimido[4,5-b][1,4]diazepin-2-ylamino)-3-methoxy-N-(1-methyl-piperidin-4-yl)-benzamide], the IC50 is less than 500 nM.
For `COc1ccccc1Nc1ncc2c(n1)N(C1CCC1)CCC(=O)N2C` [I-25, 9-Cyclobutyl-2-(2-methoxy-phenylamino)-5-methyl-5,7,8,9-tetrahydro-pyrimido[4,5-b][1,4]diazepin-6-one], the IC50 was more than 5000 nM.
The value for `COc1cc(C(=O)Nc2ccccc2)ccc1Nc1ncc2c(n1)N(C1CCCCC1)CCC(=O)N2` [I-28, 4-(9-Cyclohexyl-6-oxo-6,7,8,9-tetrahydro-5H-pyrimido[4,5-b][1,4]diazepin-2-ylamino)-3-methoxy-N-phenyl-benzamide] was more than 5000 nM; that for `COc1cc(C(=O)NC2CCN(C)CC2)ccc1Nc1ncc2c(n1)N(C1CCCCC1)CCC(=O)N2` [I-29, 4-(9-Cyclohexyl-6-oxo-6,7,8,9-tetrahydro-5H-pyrimido[4,5-b][1,4]diazepin-2-ylamino)-3-methoxy-N-(1-methyl-piperidin-4-yl)-benzamide] was 500 to 5000 nM; that for `CCCNC(=O)c1ccc(Nc2ncc3c(n2)N(C2CCCCC2)CCC(=O)N3)c(OC)c1` [I-30, 4-(9-Cyclohexyl-6-oxo-6,7,8,9-tetrahydro-5H-pyrimido[4,5-b][1,4]diazepin-2-ylamino)-3-methoxy-N-propyl-benzamide] was more than 5000 nM.
The value for `COc1cc(C(=O)N2CCOCC2)ccc1Nc1ncc2c(n1)N(C1CCCCC1)CCC(=O)N2` [I-31, 9-Cyclohexyl-2-[2-methoxy-4-(morpholine-4-carbonyl)-phenylamino]-5,7,8,9-tetrahydro-pyrimido[4,5-b][1,4]diazepin-6-one] was more than 5000 nM; that for `COc1cc(C(=O)N2CCCCC2)ccc1Nc1ncc2c(n1)N(C1CCCCC1)CCC(=O)N2` [I-32, 9-Cyclohexyl-2-[2-methoxy-4-(piperidine-1-carbonyl)-phenylamino]-5,7,8,9-tetrahydro-pyrimido[4,5-b][1,4]diazepin-6-one] was more than 5000 nM.
Under `COc1cc(C(=O)NC2CCOCC2)ccc1Nc1ncc2c(n1)N(C1CCCCC1)CCC(=O)N2` [I-33, 4-(9-Cyclohexyl-6-oxo-6,7,8,9-tetrahydro-5H-pyrimido[4,5-b][1,4]diazepin-2-ylamino)-3-methoxy-N-(tetrahydro-pyran-4-yl)-benzamide] stands more than 5000 nM; under `COc1cc(C(N)=O)ccc1Nc1ncc2c(n1)N(C1CCC1)CCC(=O)N2C` [I-34, 4-(9-Cyclobutyl-5-methyl-6-oxo-6,7,8,9-tetrahydro-5H-pyrimido[4,5-b][1,4]diazepin-2-ylamino)-3-methoxy-benzamide], 500 to 5000 nM; under `COc1cc(C(=O)N(C)C)ccc1Nc1ncc2c(n1)N(C1CCC1)CCC(=O)N2C` [I-35, 4-(9-Cyclobutyl-5-methyl-6-oxo-6,7,8,9-tetrahydro-5H-pyrimido[4,5-b][1,4]diazepin-2-ylamino)-3-methoxy-N,N-dimethyl-benzamide], more than 5000 nM.
For the compound `COc1cc(C(=O)NCCCn2ccnc2)ccc1Nc1ncc2c(n1)N(C1CCC1)CCC(=O)N2C` [I-36, 4-(9-Cyclobutyl-5-methyl-6-oxo-6,7,8,9-tetrahydro-5H-pyrimido[4,5-b][1,4]diazepin-2-ylamino)-N-(3-imidazol-1-yl-propyl)-3-methoxy-benzamide], the IC50 is less than 500 nM.
The value for `COc1cc(C(=O)Nc2ccncc2)ccc1Nc1ncc2c(n1)N(C1CCC1)CCC(=O)N2C` [I-37, 4-(9-Cyclobutyl-5-methyl-6-oxo-6,7,8,9-tetrahydro-5H-pyrimido[4,5-b][1,4]diazepin-2-ylamino)-3-methoxy-N-pyridin-4-yl-benzamide] was less than 500 nM; that for `COc1cc(C(=O)NC2CCN(C)CC2)ccc1Nc1ncc2c(n1)N(C1CCCC1)CC(C)(C)C(=O)N2C` [I-39, 4-(9-Cyclopentyl-5,7,7-trimethyl-6-oxo-6,7,8,9-tetrahydro-5H-pyrimido[4,5-b][1,4]diazepin-2-ylamino)-3-methoxy-N-(1-methyl-piperidin-4-yl)-benzamide] was less than 500 nM.
Under `COCCN1CCC(=O)N(C)c2cnc(Nc3ccc(C(=O)NC4CCN(C)CC4)cc3OC)nc21` [I-40, 3-Methoxy-4-[9-(2-methoxy-ethyl)-5-methyl-6-oxo-6,7,8,9-tetrahydro-5H-pyrimido[4,5-b][1,4]diazepin-2-ylamino]-N-(1-methyl-piperidin-4-yl)-benzamide] stands 500 to 5000 nM; under `COc1cc(C(=O)NC2CCN(C)CC2)ccc1Nc1ncc2c(n1)N(C(C)C)CCC(=O)N2C` [I-43, 4-(9-Isopropyl-5-methyl-6-oxo-6,7,8,9-tetrahydro-5H-pyrimido[4,5-b][1,4]diazepin-2-ylamino)-3-methoxy-N-(1-methyl-piperidin-4-yl)-benzamide], less than 500 nM.
Compound `CCCCN1CCC(=O)N(C)c2cnc(Nc3ccc(C(=O)NC4CCN(C)CC4)cc3OC)nc21` [I-44, 4-(9-Butyl-5-methyl-6-oxo-6,7,8,9-tetrahydro-5H-pyrimido[4,5-b][1,4]diazepin-2-ylamino)-3-methoxy-N-(1-methyl-piperidin-4-yl)-benzamide] gave an IC50 of less than 500 nM.
Take `CN1CCC(NC(=O)c2ccc(Nc3ncc4c(n3)N(C3CCCC3)CC(C)(C)C(=O)N4C)cc2)CC1` [I-50, 4-(9-Cyclopentyl-5,7,7-trimethyl-6-oxo-6,7,8,9-tetrahydro-5H-pyrimido[4,5-b][1,4]diazepin-2-ylamino)-N-(1-methyl-piperidin-4-yl)-benzamide]: the IC50 was less than 500 nM.
The value for `COc1cc(C(=O)NC2CCN(C)CC2)ccc1Nc1ncc2c(n1)N(C1CCCC1)CC1(CC1)C(=O)N2C` [I-54, 4-[(9-Cyclopentyl-6,7,8,9-tetrahydro-5-methyl-6-oxospiro[5H-pyrimido[4,5-b][1,4]diazepine-7,1′-cyclopropan]-2-yl)amino]-3-methoxy-N-(1-methyl-4-piperidinyl)benzamide] was less than 500 nM; that for `Cc1cc(C(=O)NC2CCN(C)CC2)ccc1Nc1ncc2c(n1)N(C1CCCC1)CC(C)(C)C(=O)N2C` [I-56, 4-(9-Cyclopentyl-5,7,7-trimethyl-6-oxo-6,7,8,9-tetrahydro-5H-pyrimido[4,5-b][1,4]diazepin-2-ylamino)-3-methyl-N-(1-methyl-piperidin-4-yl)-benzamide] was less than 500 nM.
In the case of `Cc1cc(C(=O)NC2CCN(C)CC2)ccc1Nc1ncc2c(n1)N(C1CCCC1)CC1(CC1)C(=O)N2C` [I-61, 4-[(9-Cyclopentyl-6,7,8,9-tetrahydro-5-methyl-6-oxospiro[5H-pyrimido[4,5-b][1,4]diazepine-7,1′-cyclopropan]-2-yl)amino]-3-methyl-N-(1-methyl-4-piperidinyl)benzamide], the IC50 was less than 500 nM.
In turn, `CN1CCC(NC(=O)c2ccc(Nc3ncc4c(n3)N(C3CCCC3)CC3(CC3)C(=O)N4C)cc2)CC1` [I-62, 4-[(9-Cyclopentyl-6,7,8,9-tetrahydro-5-methyl-6-oxospiro[5H-pyrimido[4,5-b][1,4]diazepine-7,1′-cyclopropan]-2-yl)amino]-N-(1-methyl-4-piperidinyl)benzamide] displayed an IC50 of less than 500 nM.
Under `CN1C(=O)C2(CC2)CN(C2CCCC2)c2nc(Nc3ccc(C(=O)NC4CCOCC4)cc3)ncc21` [I-63, 4-[(9-Cyclopentyl-6,7,8,9-tetrahydro-5-methyl-6-oxospiro[5H-pyrimido[4,5-b][1,4]diazepine-7,1′-cyclopropan]-2-yl)amino]-N-(tetrahydropyran-4-yl)benzamide] stands less than 500 nM; under `CN1CCC(NS(=O)(=O)c2ccc(Nc3ncc4c(n3)N(C3CCCC3)CC(C)(C)C(=O)N4C)cc2)CC1` [I-64, 4-(9-Cyclopentyl-5,7,7-trimethyl-6-oxo-6,7,8,9-tetrahydro-5H-pyrimido[4,5-b][1,4]diazepin-2-ylamino)-N-(1-methyl-piperidin-4-yl)-benzenesulfonamide], 500 to 5000 nM; under `COc1cc(C(=O)NC2CCN(C)CC2)ccc1Nc1ncc2c(n1)N1CCC[C@@H]1CC(=O)N2C` [I-102, (3R)-3-methoxy-4-(6-methyl-5-oxo-2,3,3a,4,5,6-hexahydro-1H-6,8,10,10b-tetraaza-benzo[e]azulen-9-ylamino)-N-(1-methyl-piperidin-4-yl)-benzamide], less than 500 nM.
